Earlier results on seven compounds are cited in US11324965B2, “Non-invasive energy upconversion methods and systems” (IMMUNOLIGHT, LLC., priority 2009, dated 2022).

Where two headings read alike, the source gives them in different places. Square brackets hold non-standard residues; d marks the D form. Peptide text beside a SMILES is read from it. Bpa = N[CH](Cc1ccc(C(=O)c2ccccc2)cc1)C(=O)O; 2Nal = N[CH](Cc1ccc2ccccc2c1)C(=O)O; Aib = CC(C)(N)C(=O)O

The conditions of data set [1]: for KSSET (Average): average over λex 224, 266, 280 nm.
For data set [2] the following is noted: orange juice, high UV exposure of 100 mJ/cm^2.
Another data set relates to tumors. The conditions noted are these: in vivo.

In the case of `C=C(NC(C)(C)C(=O)NC(Cc1ccc2ccccc2c1)C(=O)NC(C)(C)C(=O)NC(Cc1ccc(C(=O)c2ccccc2)cc1)C(=O)NC(C)(C)C(=O)NC(C)C(=O)O)C(C)NC(=O)[C@@H](C)N` (single isomer, unassigned) [Compound 2A], the “KSSET (Average)” value in data set [1] is recorded as 3 × 10^7 S^−1. Further, the figures for the KSSET in data set [1] (λex 224 nm), in data set [1] (λex 266 nm) and in data set [1] (λex 280 nm) were 2.1 × 10^7 S^−1, 3.7 × 10^7 S^−1 and 3.2 × 10^7 S^−1, respectively.

Consider `CC(NC(=O)C(C)(C)NC(=O)C(Cc1ccc(C(=O)c2ccccc2)cc1)NC(=O)C(C)(C)NC(=O)C(C)NC(=O)C(C)(C)NC(=O)C(Cc1ccc2ccccc2c1)NC(=O)C(C)(C)N)C(=O)O` (centres unmarked) [Compound 1B] (H-[Aib][2Nal][Aib]A[Aib][Bpa][Aib]A-OH; configuration not given here), for which the “KSSET (Average)” value in data set [1] is on record as 1.87 × 10^8 S^−1. Also, the KSSET is listed as 2.44 × 10^8 S^−1 in data set [1] (λex 224 nm), 1.8 × 10^8 S^−1 in data set [1] (λex 266 nm) and 1.36 × 10^8 S^−1 in data set [1] (λex 280 nm).

With `O=C1O[C@H]([C@@H](O)CO)C(O)=C1O` [Vitamin C], the “degradation of Vitamin C” value in data set [2] is recorded as 17%.

In the case of `Oc1cccc(-c2c3nc(c(-c4cccc(O)c4)c4ccc([nH]4)c(-c4cccc(O)c4)c4nc(c(-c5cccc(O)c5)c5ccc2[nH]5)CC4)C=C3)c1` [Foscan, Tetra (m-hydroxyphenyl) chlorin], the “duration of skin photosensitivity” value (in vivo) is recorded as “approximately 2 weeks”.

Take `CC(=O)[O-].CC(=O)[O-].CCc1c(CC)c2cc3nc(cnc4cc(OCCOCCOCCOC)c(OCCOCCOCCOC)cc4ncc4nc(cc1[n-]2)C(CCCO)=C4C)C(C)=C3CCCO.O.[Lu+3]` [Lutetium texaphryin, Motexafin lutetium]: the “selectivity for tumors compared to normal tissues” value in the data set on tumors is “one of the greatest reported selectivities for tumors”. Under “clinical use”, the “duration of skin photosensitivity” value was 24 to 48 h.

Take `C=C(NC(C)(C)C(=O)NC(Cc1ccc2ccccc2c1)C(=O)NC(C)(C)C(=O)NC(Cc1ccc(C(=O)c2ccccc2)cc1)C(=O)NC(C)(C)C(=O)NC(C)C(=O)O)C(C)NC(=O)[C@@H](C)N` (single isomer, unassigned) [Compound 2B]: the “KSSET (Average)” value in data set [1] is 3.9 × 10^7 S^−1. In addition, the KSSET is 3.1 × 10^7 S^−1 in data set [1] (λex 224 nm), 3.9 × 10^7 S^−1 in data set [1] (λex 266 nm) and 4.7 × 10^7 S^−1 in data set [1] (λex 280 nm).

On to `CC1NC(=O)C(C)(C)NC(=O)C(Cc2ccc(C(=O)c3ccccc3)cc2)NC(=O)C(C)(C)NC(=O)C(C)NC(=O)C(C)(C)NC(=O)C(Cc2ccc3ccccc3c2)NC(=O)C(C)(C)NC1=O` (centres unmarked) [Compound 1A] (cyclo([Aib][2Nal][Aib]A[Aib][Bpa][Aib]A); configuration not given here), for which the “KSSET (Average)” value in data set [1] is on record as 3.67 × 10^7 S^−1. In addition, the KSSET in data set [1] (λex 224 nm) is on record as 3.8 × 10^7 S^−1; in data set [1] (λex 266 nm), 3.6 × 10^7 S^−1; in data set [1] (λex 280 nm), 3.6 × 10^7 S^−1.
